Where a name gives a salt, the structure may show the parent alone.
Assays:
[1] = test system: GIST with KIT exon 11 mutations; conditions: cited from earlier work
[2] = Pharmacokinetics of IM and CGP74588 in patient plasma; type: in vivo, human; conditions: for increase of AUC (0–24 h) at D14 versus D10 / increase of Cmax at D14 versus D10: after IL-2 co-administration D10-D14, IM 400 mg/day; for AUC(0-inf): human, plasma
[3] = test system: lymphocytes, neutrophils and platelets; experiment: Blood cell counts during treatment; type: in vivo, human; conditions: between D1 and D10, IM alone

| Structure (SMILES) | median OS [1] [mo] | median time to progression [1] [mo] | increase of AUC (0–24 h) at D14 versus D10 [2] [%] | increase of Cmax at D14 versus D10 [2] [%] | AUC(0-inf) ([2]; im, 400 mg/day) [ng·h/mL] | AUC(0-inf) ([2]; oral, 400 mg) [ng·h/mL] | lymphocyte, neutrophil or platelet counts [3] | accumulation ratio (D10 to D1 trough concentration ratio) ([2]; IM 400 mg/day, mean ± SD) | AUC (0–24h) ([2]; patient #8, IL-2 dose level III, no toxicity) [ng·h/mL] | AUC (0–24h) ([2]; patient #10, IL-2 dose level III, grade 3 systemic capillary leak syndrome) [ng·h/mL] |
| --- | --- | --- | --- | --- | --- | --- | --- | --- | --- | --- |
| Cc1ccc(NC(=O)c2ccc(CN3CCN(C)CC3)cc2)cc1Nc1nccc(-c2cccnc2)n1 [IM, imatinib mesylate] | 60 | 27.2 | 61 | 49 | 64100 | 39700 | no significant modifications | – | – | – |
| Cc1ccc(NC(=O)c2ccc(CN3CCNCC3)cc2)cc1Nc1nccc(-c2cccnc2)n1 [CGP74588, N-desmethyl-imatinib] | – | – | 61 | 49 | – | – | – | 1.93 ± 0.69 | 13400 | 25100 |

From paper PMC3601177 (Oncoimmunology, 2013)
